# In US4593090A, “Novel nitrosourea compounds, method for preparing same, and pharmaceutical composition containing same” (Gogo Kimura, priority 1981, dated 1986):
# Like-named read-outs stand apart in the source and are kept apart here.
# What was measured:
# [1] = Acute toxicity (LD50, Behrens-Karber method); assay type: in vivo, ICR mice; conditions: mouse, in vivo, ip, mortality during 30 days
# Description: Test compounds, dissolved or suspended in 0.5% aqueous CMC, were each intraperitoneally administered to ICR mice in a dose of 0.1 ml per 10 g body weight. LD50 (mg/kg) value of each test compound was calculated from the mortality of mice during 30 days by the Behrens-Karber method.
# Leukemia L1210 = test: Activity against Leukemia L1210, intraperitoneal, increase in life span of mice; assay type: in vivo, female mice (BDF1 family); conditions: for ED (maximum ILS) / ED30: Mus musculus, L1210, ip, ip once a day for 5 successive days; for ED (maximum ILS): daily dosage giving maximum increase of life span, read-out: O.D. (optimum dosage); for ED30: daily dosage increasing average survival days by 30%, read-out: ILS30; for Survivors after 60 days / Max. ILS % / Therapeutic ratio TR: ip; for Survivors after 60 days: 6-membered group; for Max. ILS %: 60-day observation, versus control; for Therapeutic ratio TR: O.D./ILS30
# Method in brief: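 Mice (female BDF1, 20–23 g) carrying 1×10^5 ip-implanted L1210 cells were given daily ip or oral doses for 5 days; ILS% came from mean survival over 60 days relative to controls.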
# Ehrlich acites carcinoma = test: Growth-inhibiting effect against Ehrlich acites carcinoma; assay type: in vivo, male mice; conditions: Mus musculus, Ehrlich, 120 h, 5 days; for response vs control in vivo at 25 mg/kg: 25 mg/kg/day ip; for response vs control in vivo at 100 mg/kg: 100 mg/kg/day ip; for response vs control in vivo at 50 mg/kg: 50 mg/kg/day ip; for response vs control in vivo at 200 mg/kg: 200 mg/kg/day ip
# Method in brief: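 Activity graded from T/C% of total packed ascites cell volume on day 7 (treated vs untreated): - 100-66, + 65-41, ++ 40-11, +++ 10-0. Groups of 6 male mice bore 1×10^7 i.p.-implanted cells and received compound (1% Nikkol HCO-60) i.p. daily for 5 days from 24 hrs after implantation.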
# [2] = Diuretic activity, acute sodium loaded mouse screening test; assay type: in vivo, male mice; conditions: 50 mg/kg oral in 1% saline; for Cl^- / K^+ / Na^+: urine
# Description: The diuretic activity of the compounds of this invention was assayed by the diuresis screening test referred to as "acute sodium loaded mouse". This test was carried out by the following method.
# The acute sodium loaded mouse screening test was carried out by using a 10-membered group of male mice (each weighing 18 to 24 g). Test compounds were incorporated in 1% saline (NaCl) solution and orally administered in a volume of 10 ml/kg. The mice were placed in metabolic cages. Each treated group consisted of 10-members. Five members were placed in one cage. Tests were conducted by oral administrations of (A) 1% saline (NaCl) solution to the control group and (B) 1% saline (NaCl) solution containing a test compound according to this invention.
# The determination was carried out for sodium, potassium, and chlorine in each pooled urine sample. The determination of sodium and potassium was carried out by flame photometer. Chlorine was determined by chloride analysis apparatus. The analytical values of sodium, potassium, and chlorine were shown with an average mg equivalent (m Eq)/Kg/5 hours, and the diuretic activity was shown with an average urine volume (ml)/Kg/5 hours.
SMILES,LD50 at 720 h [1] [mg/kg],ED (maximum ILS) (Leukemia L1210) [mg/kg],ED30 (Leukemia L1210) [mg/kg],Survivors after 60 days (Leukemia L1210),Max. ILS % (Leukemia L1210) [%],Therapeutic ratio TR (Leukemia L1210),response vs control in vivo at 25 mg/kg (Ehrlich acites carcinoma; read-out: Activity) [%],response vs control in vivo at 25 mg/kg (Ehrlich acites carcinoma; read-out: T/C %) [%],response vs control in vivo at 100 mg/kg (Ehrlich acites carcinoma; read-out: Activity) [%],response vs control in vivo at 100 mg/kg (Ehrlich acites carcinoma; read-out: T/C %) [%],Urine volume [2] [ml/kg/5 hrs.],Cl^- [2] [mEq/kg/5 hrs.],K^+ [2] [mEq/kg/5 hrs.],Na^+ [2] [mEq/kg/5 hrs.],response vs control in vivo at 50 mg/kg (Ehrlich acites carcinoma; read-out: Activity) [%],response vs control in vivo at 50 mg/kg (Ehrlich acites carcinoma; read-out: T/C %) [%],response vs control in vivo at 200 mg/kg (Ehrlich acites carcinoma; read-out: Activity) [%],response vs control in vivo at 200 mg/kg (Ehrlich acites carcinoma; read-out: T/C %) [%]
"COCCN(C[C@H]1O[C@H](OC(C)COC)[C@H](O)[C@@H](O)[C@@H]1O)C(=O)N(CCCl)N=O (stereo partly drawn) [Compound 35, 3-(2-methoxyethyl)-3-(1-methyl-2-methoxyethyl α-D-glucopyranose-6-yl)-1-(2-chloroethyl)-1-nitrosourea]",470,150,2.23,6/6,> 700,67.3,0 to 10,0,0 to 10,0,8.8,0.6,0.9,0.5,–,–,–,–
"CCOCCCN(C(=O)N(CCCl)N=O)C1C(OC2CCCCC2)OC(CO)C(O)C1O [Compound 65, 3-(3-ethoxy-n-propyl)-3-(cyclohexyl α-D-glucopyranose-2-yl)-1-(2-chloroethyl)-1-nitrosourea]",655,200,4.44,5/6,> 620,45.0,0 to 10,0,0 to 10,0,8.8,0.7,0.8,0.6,–,–,–,–
"COCC(C)N(C[C@H]1O[C@H](OCC(C)C)[C@H](O)[C@@H](O)[C@H]1O)C(=O)N(CCCl)N=O (stereo partly drawn) [Compound 110, 3-(1-methyl-2-methoxyethyl)-3-(isobutyl α-D-galactopyranose-6-yl)-1-(2-chloroethyl)-1-nitrosourea]",680,200,3.69,4/6,> 435,54.2,0 to 10,0,0 to 10,0,8.8,0.6,0.8,0.5,–,–,–,–
"CCOCCCN(C[C@H]1O[C@H](OC(C)CC)[C@H](O)[C@@H](O)[C@@H]1O)C(=O)N(CCCl)N=O (stereo partly drawn) [Compound 19, 3-(3-ethoxy-n-propyl)-3-(sec-butyl α-D-glucopyranose-6-yl)-1-(2-chloroethyl)-1-nitrosourea]",560,180,3.33,6/6,> 700,54.0,0 to 10,0,0 to 10,0,9.1,0.7,0.8,0.6,–,–,–,–
"CCCCO[C@@H]1O[C@H](CN(C)C(=O)N(CCCl)N=O)[C@@H](O)[C@H](O)[C@H]1O [Compound 4, 3-methyl-3-(n-butyl β-D-glucopyranose-6-yl)-1-(2-chloroethyl)-1-nitrosourea]",220,80,2.7,6/6,> 700,29.6,–,–,–,–,8.6,0.6,0.9,0.5,11 to 40,30.2,0 to 10,2.3
"COC(C)CN(C(=O)N(CCCl)N=O)C1C(O)C(CO)OC(OC2CCCCC2)C1O [Compound 86, 3-(2-methoxy-n-propyl)-3-(cyclohexyl α-D-glucopyranose-3-yl)-1-(2-chloroethyl)-1-nitrosourea]",695,200,4.9,4/6,> 430,40.8,0 to 10,0,0 to 10,0,10.2,0.9,1.0,0.7,–,–,–,–
"CCOCCCN(C(=O)N(CCCl)N=O)[C@H]1[C@H](OC(C)CC)OC[C@H](O)[C@@H]1O (stereo partly drawn) [Compound 157, 3-(3-ethoxy-n-propyl)-3-(sec-butyl α-L-arabinopyranose-2-yl)-1-(2-chloroethyl)-1-nitrosourea]",550,170,2.94,6/6,> 700,57.8,0 to 10,0,0 to 10,0,10.5,1.1,1.0,0.8,–,–,–,–
"COCCN(C(=O)N(CCCl)N=O)C1C(CO)OC(OCC(C)C)C(O)C1O [Compound 93, 3-(2-methoxyethyl)-3-(isobutyl α-D-glucopyranose-4-yl)-1-(2-chloroethyl)-1-nitrosourea]",530,160,4.49,3/6,> 370,35.6,0 to 10,0,0 to 10,0,9.6,0.7,0.9,0.6,–,–,–,–
"COCCCN(C(=O)N(CCCl)N=O)C1C(OCC(C)C)OC(CO)C(O)C1O [Compound 74, 3-(3-methoxy-n-propyl)-3-(isobutyl α-D-glucopyranose-2-yl)-1-(2-chloroethyl)-1-nitrosourea]",560,170,3.92,6/6,> 700,43.2,0 to 10,0,0 to 10,0,9.4,0.7,0.8,0.6,–,–,–,–
"COCCN(C[C@H]1O[C@H](OCC(C)C)[C@H](O)[C@@H](O)[C@@H]1O)C(=O)N(CCCl)N=O [Compound 15, 3-(2-methoxyethyl)-3-(isobutyl α-D-glucopyranose-6-yl)-1-(2-chloroethyl)-1-nitrosourea]",570,180,2.9,6/6,> 700,62.1,0 to 10,0,0 to 10,0,9.2,0.7,0.9,0.6,–,–,–,–
